We go through 34 molecules from the COVID Moonshot data (paper PMC7615835).

Values joined by “and” are separate entries in the source; they are usually repeats but may differ in a detail not shown here. Identical values can stand only once.

The target of the assay is SARS-CoV-2 Main Protease (SARS-CoV-2) (UniProt P0DTD1).
Usually IC50 stands for the concentration that inhibits the measured activity by half. Read a high IC50 as lower potency. In turn, `CC1(CS(=O)(=O)N2Cc3ccc(Cl)cc3C(C(=O)Nc3cncc4ccc(C(C)(C)O)cc34)C2)CS(=O)(=O)C1` (centres undefined) yielded an IC50 of 2.36 µM.

The molecule `O=C(Cc1cc(Cl)cc(N[C@@H](CO)Cc2ccccc2)c1)Nc1cncc2ccccc12` (stereo in doubt) registered an IC50 of 2.5 µM.

The molecule `O=C(Cc1cccc(Cl)c1)Nc1c[nH]c2ccccc12` returned an IC50 greater than 99.5 µM.

On to `Cn1c(C(NC(=O)Cc2cc3ccccc3[nH]2)c2cccc(Cl)c2)nc2ccccc21` (centres undefined), for which the IC50 is greater than 99.5 µM.

For the molecule `Cn1cc(-c2cc(C(=O)N(c3ccc(C(C)(C)C)cc3)C(C(=O)NCCc3cccc(F)c3)c3cccnc3)on2)cn1` (centres undefined), the concentration for half-maximal inhibition (IC50) was greater than 99.5 µM.

Turning to `CS(=O)(=O)c1ccc2c(NC(=O)C3CN(CC(=O)NCC4CC4)C(=O)c4ccc(Cl)cc43)cncc2c1` (centres undefined), the IC50 was 0.179 µM and 0.174 µM.

For `N#Cc1cccc(CN2CCN(C(=O)CCl)CC2)c1`, the IC50 is 19.7 µM.

Turning to `COc1ccc(NC(=O)C(c2cccnc2)N(C(=O)c2cocn2)c2ccc(C(C)(C)C)cc2)cn1` (centres undefined), the IC50 was determined as 5.37 µM.

With `O=C(Nc1cncc2ccccc12)C1CN(S(=O)(=O)C2COC2)Cc2ccc(Cl)cc21` (centres undefined), the IC50 amounted to 0.246 µM.

Regarding `O=C(NCCc1cccc(F)c1)C(c1cccnc1)N(C(=O)c1cocn1)c1cnc(C2CCC2)nc1` (centres undefined), the half-maximal inhibitory concentration (IC50) amounted to 69.1 µM.

Take `O=C(Cc1cc(Cl)cc(Nc2cc(Cl)ccc2OC(F)(F)F)c1)Nc1cncc2ccccc12`: the IC50 was 2.12 µM.

In turn, `CCC(=O)Nc1ccc(N(Cc2ccccc2)C(=O)n2nnc3ccccc32)cc1` gave an IC50 greater than 99.5 µM.

With `O=C(NCc1ccccc1)[C@H]1CN(C(=O)CCl)CCN1S(=O)(=O)c1ccsc1` (stereo in doubt), the IC50 worked out at 0.621 µM. That is a sub-micromolar value.

As for `C=CC(=O)N[C@H](Cc1ccccc1)C(=O)NCCN(C)C` (stereo in doubt), the IC50 was greater than 99.5 µM.

For `COCc1ccc2cncc(NC(=O)Cc3cccc(Cl)c3)c2c1`, the half-maximal inhibitory concentration (IC50) was determined as 2.21 µM.

In the case of `CNC(=O)CN1CC(C(=O)Nc2cncc3cccc(C)c23)c2cc(Cl)ccc2C1=O` (centres undefined), the 50% inhibitory concentration (IC50) amounted to 0.361 µM.

Regarding `Cc1ccncc1NC(=O)Cc1cc(Cl)cc(NS(N)(=O)=O)c1`, the IC50 was 11.3 µM.

In the case of `O=C(Cc1cc(Cl)cc(Cc2ccn[nH]2)c1)Nc1cncc2ccccc12`, the IC50 turned out to be 5.04 µM.

As for `O=C(NC(c1ccccc1)c1ccccc1)[C@H]1CN(C(=O)CCl)CCN1S(=O)(=O)c1ccsc1` (stereo in doubt), the IC50 worked out at 0.832 µM.

Turning to `COc1nc2ncc(C(C(=O)NCCc3cccc(F)c3)N(C(=O)c3cocn3)c3ccc(C(C)(C)C)cc3)cn2n1` (centres undefined), the concentration for half-maximal inhibition (IC50) was determined as 33.4 µM.

Regarding `CCCc1nn(C)c(C(=O)Nc2cc(Cl)cc(CC(=O)Nc3cncc4ccccc34)c2)c1N`, the IC50 was determined as 7.35 µM.

`CC(C)(C)c1ccc(N(C(=O)C2CCCO2)C(C(=O)NCCc2cccc(F)c2)c2cccnc2)cc1` (centres undefined) displayed an IC50 of 5.56 µM.

For `O=C(Cc1cccc(Cl)c1)Nc1nnn[nH]1`, the IC50 turned out to be 45.3 µM.

As for `Cc1cc(F)cc(Br)c1Nc1cc(Cl)cc(CC(=O)Nc2cncc3ccccc23)c1`, the IC50 is 2 µM.

In turn, `Nc1nc2[nH]cnc2c(=O)n1-c1cc(Cl)cc(CC(=O)Nc2cncc3ccccc23)c1` displayed an IC50 of 1.86 µM.

With `CCCC(C(=O)Nc1cnccc1C)c1cccc(Cl)c1` (centres undefined), the IC50 was 17.9 µM and 16.8 µM.

Regarding `CC(=O)NC(C(=O)Nc1cncc2ccccc12)c1ccc(Cl)c(Cl)c1` (centres undefined), the IC50 was determined as 4.05 µM.

Consider `O=C(Cc1cc(Cl)cc(NCc2ccc(Br)cc2)c1)Nc1cncc2ccccc12`, for which the IC50 was greater than 99.5 µM.

`Cc1ccncc1NC(=O)Cc1cc(Cl)cc(NC2(C)CCC(F)(F)CC2)c1` displayed an IC50 of 14.7 µM.

For `O=C(c1cc(=O)[nH]c2ccccc12)N1CCN(c2ccc(F)cc2)CC1`, the IC50 was 16.5 µM.

Regarding `O=C(Oc1cncc2ccccc12)C1CCOc2ccc(Cl)cc21` (centres undefined), the IC50 was determined as 0.522 µM.

For `CN(CCO)C1CCN(C(=O)CC2(C(=O)Nc3cncc4ccccc34)CCOc3ccc(Cl)cc32)CC1` (centres undefined), the IC50 was 37.6 µM.

In the case of `Cc1cc(Nc2cc(Cl)cc(CC(=O)Nc3cncc4ccccc34)c2)c(F)cc1Br`, the IC50 turned out to be 2.05 µM.

On to `COCC1(C(=O)Nc2cncc3ccccc23)CCOc2cc(Cl)c(Cl)cc21` (centres undefined), for which the IC50 turned out to be 4.04 µM. This IC50 lies about 2-fold higher than the previous one.
